The subject of experiment [1] is parakeratosis caused by oleic acid. Put plainly: Test on parakeratosis inhibitory action (oleic acid applied on the back of a hairless mouse). The experiment is classed as in vivo. The note with it: for Incidence of Parakeratosis (Average of 4 mice): 100 μL, 3 days, grades of 1 to 4; for Effect on parakeratosis caused by oleic acid (in words): summary of Tables 2 and 3, hairless mouse. On the procedure:
An aqueous solution containing 3% each of GABA, glycine, D-glutamic acid and L-glutamic acid was prepared, and pH of each solution was adjusted to nutrality, if necessary. An aqueous solution containing 10 mM each of GABA, bicuculline methobromide (antagonist to GABA receptor type A), MK-801, muscimol, isogubacin, ATP, suramin, PPADS and TNP-ATP was also prepared.
Thereafter, 100 μL of sample solution or reference solution was applied. This procedure was repeated for 3 days, and the keratin layer on the back was peeled with a tape. The nucleus of the keratin layer was stained with hematoxylin, the number of nuclear cells was counted under a microscope, and the results were evaluated in four grades of 1 to 4.

For the next experiment, the system named is pores. Briefly: Test on pore-shrinking action (replicas of cheek pores). The note with it: for Decision of Replica of Pores (Average of n = 5): 3% sample solution on cheek twice a day for 1 month, difference of scores (13 grades of 1 to 13) before and after the test; for Pore-shrinking effect (in words): summary of Table 4, 3% solutions.
In the next experiment the test system is Epidermal keratinocyte. Put plainly: Excitatory action test of cells with oleic acid (intracellular calcium, fura-2-AM). The experiment is classed as cell-based. The conditions noted are these: summary of Table 1.
Setting [2] is: Application Test of 3% Oleic Acid Solution, sample 10 mM, water reference 2.0.
[3] abbreviates: Application Test of 30% Oleic Acid Solution, sample 3% solution, water reference 2.5.

The results in this text go back to patent US20080269304A1, “Parakeratosis inhibitor, pore-shrinking agent and skin preparation for external use” (priority 2002, published 2008).

Procedure for Epidermal keratinocyte: Epidermal keratinocyte was cultivated on an appropriate medium, for example, KGM medium, according to the conventional method. The cultured cells were seeded on a cover glass chamber and cultivated there a day before measuring calcium ions. An appropriate buffer solution, for example BSS (balanced salt solution) and a calcium sensitive fluorescent pigment (fura-2-AM) were added in the cultured cell at a concentration of about 2 μM on the next day, and the fluorescent pigment was allowed to be incorporated into the cell by incubating under an appropriate condition (for example 30 minutes at 37° C.). After completing intake of the pigment, the same buffer solution (fresh BSS) was added. […] The same measurement was carried out by adding only the same buffer solution (BSS). The fluorescence intensity at 340 nm was divided by the fluorescence intensity at 380 nm for determining the calcium concentration according to the conventional method.

As to `C[C@]12N[C@H](Cc3ccccc31)c1ccccc12` [MK-801, dizocylpin], the “Incidence of Parakeratosis (Average of 4 mice)” value (“Incidence of Parakeratosis” below) in experiment [1] (setting [2]) amounted to 1.0. The “Effect on parakeratosis caused by oleic acid (in words)” value (shortened to “Effect on parakeratosis caused”) in experiment [1] is reported as “improved parakeratosis”.
For `Nc1ncnc2c1ncn2[C@@H]1O[C@H](COP(=O)(O)OP(=O)(O)OP(=O)(O)O)[C@@H](O)[C@H]1O` [ATP] the same measures were 2.3 and “worsens parakeratos is”.
Turning to `C[N+]1(C)CCc2cc3c(cc2[C@H]1[C@@H]1OC(=O)c2c1ccc1c2OCO1)OCO3.[Br-]` [bicuculline methobromide], in experiment [1], the “Effect on parakeratosis caused” value is recorded as “inhibited parakeratosis inhibitory action”.
As to `Cc1ccc(C(=O)Nc2ccc(S(=O)(=O)O)c3cc(S(=O)(=O)O)cc(S(=O)(=O)O)c23)cc1NC(=O)c1cccc(NC(=O)Nc2cccc(C(=O)Nc3cc(C(=O)Nc4ccc(S(=O)(=O)O)c5cc(S(=O)(=O)O)cc(S(=O)(=O)O)c45)ccc3C)c2)c1` [Suramin, suramin], in experiment [1] (setting [2]), the “Incidence of Parakeratosis” value is listed as 1.5. For the same compound, in experiment [1], the “Effect on parakeratosis caused” value is reported as “improved parakeratosis”.
For `Cc1nc(N=Nc2ccc(S(=O)(=O)O)cc2S(=O)(=O)O)c(COP(=O)(O)O)c(C=O)c1O` [PPADS, pyridoxal phosphate-6-azophenyl-2′,4′-disulfonic acid] the same measures were 1.8 and “improved parakeratosis”.
Regarding trinitrophenyl-ATP [TNP-ATP], the “Incidence of Parakeratosis” value in experiment [1] (setting [2]) is 1.5. The “Effect on parakeratosis caused” value in experiment [1] is recorded as “improved parakeratosis”.
Take `NCc1cc(=O)[nH]o1` [Muscimol, muscimol]: in experiment [1] (setting [2]), the “Incidence of Parakeratosis” value was 1.3. For the same compound, the “Effect on parakeratosis caused” value in experiment [1] is reported as “improved parakeratosis”.
As to `N[C@@H](CCC(=O)O)C(=O)O` [L-Glutamic Acid, L-glutamic acid], the “Incidence of Parakeratosis” value in experiment [1] (setting [3]) is on record as 3.0. In addition, the “Effect on parakeratosis caused” value in experiment [1] is “worsens parakeratosis”.
`NCCCC(=O)O` [GABA, γ-aminobutyric acid]: in the experiment with pores, the “Decision of Replica of Pores (Average of n = 5)” value (“Decision of Replica of Pores” below) was −1.0 and the “Pore-shrinking effect (in words)” value is listed as “excellent pore-shrinking effects”. Further, the “Incidence of Parakeratosis” value in experiment [1] (setting [2]) amounted to 1.5. In experiment [1] (setting [3]), the “Incidence of Parakeratosis” value is given as 1.5. Further, the “Effect on parakeratosis caused” value in experiment [1] is given as “improved parakeratosis”.
Regarding `N[C@H](CCC(=O)O)C(=O)O` [D-Glutamic Acid, D-glutamic acid], in the experiment with pores, the “Decision of Replica of Pores” value is −0.4 and the “Pore-shrinking effect (in words)” value is given as “excellent pore-shrinking effects”. The “Incidence of Parakeratosis” value in experiment [1] (setting [3]) was found to be 2.0. The “Effect on parakeratosis caused” value in experiment [1] is “improved parakeratosis”.
With `CCCCCCCC/C=C\CCCCCCCC(=O)O` [Oleic Acid, oleic acid], the “Excitatory function of the cell (in words)” value in the experiment on Epidermal keratinocyte is recorded as “has an excitatory function”.
`NCC(=O)O` [Glycine, glycine]: in the experiment on pores, the “Decision of Replica of Pores” value was −1.2 and the “Pore-shrinking effect (in words)” value is “excellent pore-shrinking effects”. In experiment [1] (setting [3]), the “Incidence of Parakeratosis” value came out at 1.3. The “Effect on parakeratosis caused” value in experiment [1] is “improved parakeratosis”.
On to `O=C(O)C1=CCNCC1` [Isogubacin, isogubacin], for which the “Incidence of Parakeratosis” value in experiment [1] (setting [2]) came out at 1.3. Besides, the “Effect on parakeratosis caused” value in experiment [1] was “improved parakeratosis”.
